The target of this experiment is Hematopoietic prostaglandin D synthase (Homo sapiens, UniProt O60760). Kind of experiment: Fluorescence Polarization Binding Assay (FPBA): This assay essentially is available from Cayman Chemical Company as Catalog item #600007. The test data reported for the aforementioned Examples (H-PGDS FPBA IC50) were generated using a 96-well, instead of the 384-well, format.Detection analyte and H-PGDS-MBP fusion enzyme were incubated in the presence of reduced glutathione (5 mM) for 60-90 minutes at room temperature and FP was measured using a TECAN SAFIRE 2 plate reader equipped with absorbance, fluorescence, fluorescence polarization and FRET capabilities. Assays were performed in 96-well microtiter plates in 100 µL of total sample volume. Excitation and emission wavelengths appropriate for the employed detection analyte were used. (Polarisation of emitted light reports the rotation of a fluorescent probe.)

In ChEMBL document CHEMBL3886227, “Multiheteroaryl compounds as inhibitors of H-PGDS and their use for treating prostaglandin D2 mediated diseases” (2015) one finds IC50 data, which are given here for one molecule.

Molecules are shown by their SMILES.

Sequence of Hematopoietic prostaglandin D synthase (O60760 whole entry, the tested form may be a part): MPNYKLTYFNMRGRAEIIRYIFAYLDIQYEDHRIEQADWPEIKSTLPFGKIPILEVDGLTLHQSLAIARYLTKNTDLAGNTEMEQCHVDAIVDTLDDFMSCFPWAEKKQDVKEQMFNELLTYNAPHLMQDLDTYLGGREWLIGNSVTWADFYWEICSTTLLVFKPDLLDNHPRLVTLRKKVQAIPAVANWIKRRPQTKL

Regarding `COC(=O)c1cc(-c2cnc(Oc3ccccc3)nc2)[nH]n1`, the IC50 was 2 µM.

What is called IC50 is the concentration that gives 50% inhibition.
